Four compounds from ChEMBL document CHEMBL4400563, “Discovery of a small molecule RXFP3/4 agonist that increases food intake in rats upon acute central administration” (Bioorg Med Chem Lett, 2019) can be followed below.

Data set [1] addresses T1, Relaxin-3 receptor 2 (Homo sapiens, UniProt Q8TDU9). Briefly: Agonist activity at human RXFP4 expressed in CHOK1 cells assessed as inhibition of forskolin-stimulated intracellular cAMP accumulation preincubated for 30 mins followed by forskolin-stimulation and measured after 30 mins by HTRF assay relative to relaxin-3. The data set is classed as functional, cell-based. In general terms: Changes in cAMP serve as a functional read-out for many G protein-coupled receptors.

For data set [2], the target named is T1, Relaxin-3 receptor 2. The data set is described as follows: Agonist activity at human RXFP4 expressed in CHOK1 cells assessed as inhibition of forskolin-stimulated intracellular cAMP accumulation preincubated for 30 mins followed by forskolin-stimulation and measured after 30 mins by HTRF assay. It is filed as functional, cell-based.
The target of data set [3] is T2, Relaxin-3 receptor 1 (Homo sapiens) (UniProt Q9NSD7).
T2 sequence (whole entry): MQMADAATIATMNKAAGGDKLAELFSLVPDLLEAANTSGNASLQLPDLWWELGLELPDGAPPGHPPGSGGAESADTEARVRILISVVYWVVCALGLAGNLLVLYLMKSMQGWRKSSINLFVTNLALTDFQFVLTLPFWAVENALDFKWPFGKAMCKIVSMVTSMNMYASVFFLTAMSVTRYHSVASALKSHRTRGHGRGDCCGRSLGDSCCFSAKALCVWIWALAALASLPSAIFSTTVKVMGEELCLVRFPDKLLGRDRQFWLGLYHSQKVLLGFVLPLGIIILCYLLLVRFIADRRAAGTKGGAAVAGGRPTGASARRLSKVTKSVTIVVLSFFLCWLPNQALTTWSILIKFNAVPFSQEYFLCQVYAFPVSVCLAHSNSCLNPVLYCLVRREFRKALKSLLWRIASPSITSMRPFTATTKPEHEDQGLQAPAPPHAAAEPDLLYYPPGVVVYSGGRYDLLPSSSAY
The data set is described as follows: Agonist activity at human RXFP3 expressed in CHOK1 cells assessed as induction of JNK phosphorylation at 5 uM by Western blot analysis. It is filed as cell-based.

The species entered for data set [4] is Cricetulus griseus. The data set is described as follows: Induction of JNK phosphorylation CHOK1 cells at 5 uM by Western blot analysis.
Data set [5] concerns Rattus norvegicus. The data set is described as follows: Induction of food intake in Sprague-Dawley rat at 1 umol, icv after 24 hrs (reference value: 24.1 +/- 2.7g). The data set is classed as functional.
Data set [6] concerns the target T1, Relaxin-3 receptor 2. Briefly: Agonist activity at human RXFP4 expressed in CHOK1 cell membranes assessed as stimulation of [35S]-GTPgammaS binding after 3 hrs by scintillation counting method. The data set is classed as functional. Background: GTPγS resists hydrolysis and so accumulates on activated G proteins.
Data set [7] concerns CHO-K1. Briefly: Effect on total JNK protein levels in CHOK1 cells at 5 uM by Western blot analysis. The data set is classed as ADME, cell-based, Cricetulus griseus. The note with it: chinese hamster, cho-k1, 5 µM. For orientation: A western blot detects proteins with antibodies after separation by electrophoresis.
For data set [8], the target named is T2, Relaxin-3 receptor 1 (Homo sapiens). The data set is described as follows: Agonist activity at human RXFP3 expressed in CHOK1 cells assessed as inhibition of forskolin-stimulated intracellular cAMP accumulation preincubated for 30 mins followed by forskolin-stimulation and measured after 30 mins by HTRF assay relative to relaxin-3. The data set is classed as functional, cell-based.

Data set [9] has the same target. Briefly: Agonist activity at human RXFP3 expressed in CHOK1 cells assessed as induction of ERK1/2 phosphorylation at 5 uM by Western blot analysis. The data set is classed as cell-based.
Data set [10] deals with Rattus norvegicus. The data set is described as follows: Induction of food intake in Sprague-Dawley rat at 1 umol, icv after 4 hrs (reference value: 2.5 +/- 0.6g). It is filed as functional.
For data set [11], the species on record is Cricetulus griseus. Briefly: Induction of ERK1/2 phosphorylation CHOK1 cells at 5 uM by Western blot analysis.
In data set [12] the test system is CHO-K1. Briefly: Effect on total p38 MAPK protein levels in CHOK1 cells at 5 uM by Western blot analysis. It is filed as ADME, cell-based, Cricetulus griseus. The following applies: chinese hamster, cho-k1, 5 µM.
The subject of data set [13] is CHO-K1. The data set is described as follows: Effect on total ERK1/2 protein levels in CHOK1 cells at 5 uM by Western blot analysis. The following applies: chinese hamster, cho-k1, 5 µM. It is filed as ADME, cell-based, Cricetulus griseus.
Data set [14] relates to Rattus norvegicus. Briefly: Induction of food intake in satiated Sprague-Dawley rat at 1 umol, icv after 0 to 2 hrs (reference value: 1.7 +/- 0.5g). It is filed as functional.
In data set [15] the target is T2, Relaxin-3 receptor 1 (Homo sapiens). The data set is described as follows: Agonist activity at human RXFP3 expressed in CHOK1 cells assessed as induction of p38 MAPK phosphorylation at 5 uM by Western blot analysis. The data set is classed as cell-based.
Data set [16] concerns the target Relaxin-3 receptor 1/2 (Homo sapiens) (UniProt Q9NSD7+Q8TDU9). Briefly: Agonist activity at human RXFP3/4 in human U2OS cells assessed as induction of beta-arrestin recruitment incubated for 1 hr by chemiluminescence based PathHunter beta-arrestin assay relative to relaxin-3. The data set is classed as cell-based.
For data set [17], the species on record is Cricetulus griseus. The data set is described as follows: Induction of p38 MAPK phosphorylation CHOK1 cells at 5 uM by Western blot analysis.
In data set [18] the target is T3, Relaxin-3 receptor 1 (Homo sapiens, UniProt Q9NSD7).
T3 sequence (Q9NSD7 whole entry): T2 sequence (whole entry)
The data set is described as follows: Agonist activity at human RXFP3 expressed in CHOK1 cells assessed as inhibition of forskolin-stimulated intracellular cAMP accumulation preincubated for 30 mins followed by forskolin-stimulation and measured after 30 mins by HTRF assay. It is filed as functional, cell-based.

Each structure is given as a SMILES string. The source made the active and inactive calls. No cut-off for these calls is given here.

T1 sequence (Q8TDU9 whole entry): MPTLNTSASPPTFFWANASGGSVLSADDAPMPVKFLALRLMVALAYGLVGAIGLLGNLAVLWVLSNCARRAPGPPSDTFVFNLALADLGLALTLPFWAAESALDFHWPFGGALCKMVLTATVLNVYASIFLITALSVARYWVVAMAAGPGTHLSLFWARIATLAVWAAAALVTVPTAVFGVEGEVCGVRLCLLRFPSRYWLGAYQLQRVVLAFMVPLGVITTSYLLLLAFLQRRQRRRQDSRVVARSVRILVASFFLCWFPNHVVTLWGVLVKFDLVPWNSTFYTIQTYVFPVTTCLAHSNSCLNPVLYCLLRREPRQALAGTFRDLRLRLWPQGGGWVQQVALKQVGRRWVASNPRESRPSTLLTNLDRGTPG
Relaxin-3 receptor 1/2 (Homo sapiens), sequence (Q8TDU9 whole entry, looked up, one chain of several): as the sequence (Q8TDU9 whole entry) above

By Emax is commonly meant the size of the effect at its maximum, as opposed to the concentration needed. A word on the EC50: it is the concentration that produces a half-maximal response. As for `COc1cc(C)c2[nH]cc(/C=N/NC(=N)NCCc3ccc(Cl)c(Cl)c3)c2c1`, in data set [1], the Emax was in the range of 99 to 99.2%. In addition, in data set [2], the EC50 is 58 nM.
`CCc1cc(O)cc2c(/C=N/NC(=N)NCCc3ccc(Cl)cc3)c[nH]c12`: the outcome in data set [3] and in [9] was Active. In addition, the result in data set [4], in [11], in [15] and in data set [17] was inactive. Also, the Activity in [5] is listed as 35.3 g; in data set [7] it was “Non-Toxic”; in [10], 7.1 g; in data set [12], “Non-Toxic”; in data set [13], “Non-Toxic”; in [14], 3.5 g. The Emax turned out to be 100% in data set [1], 105% in data set [8] and 79.2% in [16]. Also, the EC50 in [6] turned out to be 11 nM; in data set [2], 2 nM.
Turning to `Cc1cc(O)cc2c(/C=N/NC(=N)NCCc3ccc(Cl)c(Cl)c3)c[nH]c12`, the figures for the Emax in data set [1] and in data set [8] were 113% and 77.7%, respectively. Further, the EC50 was determined as 800 nM in data set [18] and 4 nM in data set [2].
For `COc1cc(C)c2[nH]cc(/C=N/NC(=N)NCCc3ccc(Cl)cc3)c2c1`, in that order: 113%, 55.7%, 1300 nM and 100 nM.
